According to paper PMC9848257, “Design and synthesis of novel rigid dibenzo[b,f]azepines through ring closure technique as promising anticancer candidates against leukaemia and acting as selective topoisomerase II inhibitors and DNA intercalators” (Journal of Enzyme Inhibition and Medicinal Chemistry, 2023):

Key:
SK-MEL-5 = test: NCI-60 one-dose screen, SK-MEL-5; assay type: cell-based; settings: Homo sapiens; SK-MEL-5, melanoma; single dose 10 μM; read-out: Growth inhibition %
HOP-92 = test: NCI-60 one-dose screen, HOP-92; assay type: cell-based; settings: Homo sapiens; HOP-92, non-small cell lung cancer; single dose 10 μM; read-out: Growth inhibition %
OVCAR-4 = test: NCI-60 one-dose screen, OVCAR-4; assay type: cell-based; settings: Homo sapiens; OVCAR-4, ovarian cancer; single dose 10 μM; read-out: Growth inhibition %
NCI-H23 = test: NCI-60 one-dose screen, NCI-H23; assay type: cell-based; settings: Homo sapiens; NCI-H23, non-small cell lung cancer; single dose 10 μM; read-out: Growth inhibition %
ACHN = test: NCI-60 one-dose screen, ACHN; assay type: cell-based; settings: Homo sapiens, renal cancer, single dose 10 μM, read-out: Growth inhibition %
RXF 393 = test: NCI-60 one-dose screen, RXF 393; assay type: cell-based; settings: Homo sapiens; RXF 393, renal cancer; single dose 10 μM; read-out: Growth inhibition %
MCF-7 = test: NCI-60 one-dose screen, MCF-7; assay type: cell-based; settings: Homo sapiens, MCF7; MCF-7, breast cancer; single dose 10 μM; read-out: Growth inhibition %
MDA-MB-435 = test: NCI-60 one-dose screen, MDA-MB-435; assay type: cell-based; settings: Homo sapiens; MDA-MB-435, melanoma; single dose 10 μM; read-out: Growth inhibition %
PC-3 = test: NCI-60 one-dose screen, PC-3; assay type: cell-based; settings: Homo sapiens; PC-3, prostate cancer; single dose 10 μM; read-out: Growth inhibition %
SW-620 = test: NCI-60 one-dose screen, SW-620; assay type: cell-based; settings: Homo sapiens; SW-620, colon cancer; single dose 10 μM; read-out: Growth inhibition %
IGROV1 = test: NCI-60 one-dose screen, IGROV1; assay type: cell-based; settings: Homo sapiens, IGROV-1; IGROV1, ovarian cancer; single dose 10 μM; read-out: Growth inhibition %
NCI-H322M = test: NCI-60 one-dose screen, NCI-H322M; assay type: cell-based; settings: Homo sapiens, non-small cell lung cancer, single dose 10 μM, read-out: Growth inhibition %
HCT-116 = test: NCI-60 one-dose screen, HCT-116; assay type: cell-based; settings: Homo sapiens; HCT-116, colon cancer; single dose 10 μM; read-out: Growth inhibition %
NCI/ADR-RES = test: NCI-60 one-dose screen, NCI/ADR-RES; assay type: cell-based; settings: Homo sapiens, ovarian cancer, single dose 10 μM, read-out: Growth inhibition %
OVCAR-3 = test: NCI-60 one-dose screen, OVCAR-3; assay type: cell-based; settings: Homo sapiens; OVCAR-3, ovarian cancer; single dose 10 μM; read-out: Growth inhibition %
U251 = test: NCI-60 one-dose screen, U251; assay type: cell-based; settings: Homo sapiens, U-251; U251, CNS cancer; single dose 10 μM; read-out: Growth inhibition %
COLO 205 = test: NCI-60 one-dose screen, COLO 205; assay type: cell-based; settings: Homo sapiens; COLO 205, colon cancer; single dose 10 μM; read-out: Growth inhibition %
SF-268 = test: NCI-60 one-dose screen, SF-268; assay type: cell-based; settings: Homo sapiens; SF-268, CNS cancer; single dose 10 μM; read-out: Growth inhibition %
HS 578 T = test: NCI-60 one-dose screen, HS 578 T; assay type: cell-based; settings: Homo sapiens, breast cancer, single dose 10 μM, read-out: Growth inhibition %
EKVX = test: NCI-60 one-dose screen, EKVX; assay type: cell-based; settings: Homo sapiens, non-small cell lung cancer, single dose 10 μM, read-out: Growth inhibition %
OVCAR-8 = test: NCI-60 one-dose screen, OVCAR-8; assay type: cell-based; settings: Homo sapiens; OVCAR-8, ovarian cancer; single dose 10 μM; read-out: Growth inhibition %
CCRF-CEM = test: NCI-60 one-dose screen, CCRF-CEM; assay type: cell-based; settings: Homo sapiens, leukaemia, single dose 10 μM, read-out: Growth inhibition %
HCT-15 = test: NCI-60 one-dose screen, HCT-15; assay type: cell-based; settings: Homo sapiens; HCT-15, colon cancer; single dose 10 μM; read-out: Growth inhibition %
OVCAR-5 = test: NCI-60 one-dose screen, OVCAR-5; assay type: cell-based; settings: Homo sapiens; OVCAR-5, ovarian cancer; single dose 10 μM; read-out: Growth inhibition %
SR = test: NCI-60 one-dose screen, SR; assay type: cell-based; settings: Homo sapiens, leukaemia, single dose 10 μM, read-out: Growth inhibition %
DU-145 = test: NCI-60 one-dose screen, DU-145; assay type: cell-based; settings: Homo sapiens; DU-145, prostate cancer; single dose 10 μM; read-out: Growth inhibition %
CAKI-1 = test: NCI-60 one-dose screen, CAKI-1; assay type: cell-based; settings: Homo sapiens; CAKI-1, renal cancer; single dose 10 μM; read-out: Growth inhibition %
A549-ATCC = test: NCI-60 one-dose screen, A549-ATCC; assay type: cell-based; settings: Homo sapiens, non-small cell lung cancer, single dose 10 μM, read-out: Growth inhibition %
TK-10 = test: NCI-60 one-dose screen, TK-10; assay type: cell-based; settings: Homo sapiens; TK-10, renal cancer; single dose 10 μM; read-out: Growth inhibition %
NCI-H460 = test: NCI-60 one-dose screen, NCI-H460; assay type: cell-based; settings: Homo sapiens; NCI-H460, non-small cell lung cancer; single dose 10 μM; read-out: Growth inhibition %
UO-31 = test: NCI-60 one-dose screen, UO-31; assay type: cell-based; settings: Homo sapiens; UO-31, renal cancer; single dose 10 μM; read-out: Growth inhibition %
UACC-257 = test: NCI-60 one-dose screen, UACC-257; assay type: cell-based; settings: Homo sapiens; UACC-257, melanoma; single dose 10 μM; read-out: Growth inhibition %
MALME-3M = test: NCI-60 one-dose screen, MALME-3M; assay type: cell-based; settings: Homo sapiens, melanoma, single dose 10 μM, read-out: Growth inhibition %
T-47D = test: NCI-60 one-dose screen, T-47D; assay type: cell-based; settings: Homo sapiens, T47D, breast cancer, single dose 10 μM, read-out: Growth inhibition %

## C1=Cc2ccccc2N(c2nnc(-c3ccc4ccccc4c3)o2)c2ccccc21 [Compound 5f, 2-(5 h-Dibenzo[b,f]azepin-5-yl)-5-(naphthalen-2-yl)-1,3,4-oxadiazole]
SK-MEL-5
  inhibition at 10 µM: 15.8%
HOP-92
  inhibition at 10 µM: 20.9%
OVCAR-4
  inhibition at 10 µM: < 10%
NCI-H23
  inhibition at 10 µM: 12.4%
ACHN
  inhibition at 10 µM: 10.5%
RXF 393
  inhibition at 10 µM: 10.4%
MCF-7
  inhibition at 10 µM: 24.4%
MDA-MB-435
  inhibition at 10 µM: < 10%
PC-3
  inhibition at 10 µM: 40.9%
SW-620
  inhibition at 10 µM: < 10%
IGROV1
  inhibition at 10 µM: 29.1%
NCI-H322M
  inhibition at 10 µM: 9.52%
HCT-116
  inhibition at 10 µM: 27.3%
NCI/ADR-RES
  inhibition at 10 µM: 12.1%
OVCAR-3
  inhibition at 10 µM: 2.22%
U251
  inhibition at 10 µM: 32.3%
other
  melting point: 201 to 203 °C
COLO 205
  inhibition at 10 µM: < 10%
SF-268
  inhibition at 10 µM: 21.9%
HS 578 T
  inhibition at 10 µM: < 10%
EKVX
  inhibition at 10 µM: 28.9%
OVCAR-8
  inhibition at 10 µM: 9.31%
CCRF-CEM
  inhibition at 10 µM: 28.2%
HCT-15
  inhibition at 10 µM: 57%
OVCAR-5
  inhibition at 10 µM: < 10%
SR
  inhibition at 10 µM: 58.4%
DU-145
  inhibition at 10 µM: < 10%
CAKI-1
  inhibition at 10 µM: 33.1%
A549-ATCC
  inhibition at 10 µM: 28.2%
TK-10
  inhibition at 10 µM: 20.3%
NCI-H460
  inhibition at 10 µM: 25.1%
UO-31
  inhibition at 10 µM: 24.7%
UACC-257
  inhibition at 10 µM: < 10%
MALME-3M
  inhibition at 10 µM: < 10%
T-47D
  inhibition at 10 µM: 18.3%

## C1=Cc2ccccc2N(c2nnc(Cc3ccccc3)o2)c2ccccc21 [Compound 5g, 2-Benzyl-5-(5H-dibenzo[b,f]azepin-5-yl)-1,3,4-oxadiazole]
SK-MEL-5
  inhibition at 10 µM: < 10%
HOP-92
  inhibition at 10 µM: < 10%
OVCAR-4
  inhibition at 10 µM: < 10%
NCI-H23
  inhibition at 10 µM: < 10%
ACHN
  inhibition at 10 µM: 27.7%
RXF 393
  inhibition at 10 µM: < 10%
MCF-7
  inhibition at 10 µM: < 10%
MDA-MB-435
  inhibition at 10 µM: < 10%
PC-3
  inhibition at 10 µM: < 10%
SW-620
  inhibition at 10 µM: 19.7%
IGROV1
  inhibition at 10 µM: < 10%
NCI-H322M
  inhibition at 10 µM: < 10%
HCT-116
  inhibition at 10 µM: 31.4%
NCI/ADR-RES
  inhibition at 10 µM: < 10%
OVCAR-3
  inhibition at 10 µM: 12.3%
U251
  inhibition at 10 µM: 10.1%
other
  melting point: 189 to 191 °C
COLO 205
  inhibition at 10 µM: < 10%
SF-268
  inhibition at 10 µM: 10.7%
HS 578 T
  inhibition at 10 µM: 24.1%
EKVX
  inhibition at 10 µM: 2.24%
OVCAR-8
  inhibition at 10 µM: 16.5%
CCRF-CEM
  inhibition at 10 µM: 15.6%
HCT-15
  inhibition at 10 µM: 4.03%
OVCAR-5
  inhibition at 10 µM: < 10%
SR
  inhibition at 10 µM: 17.6%
DU-145
  inhibition at 10 µM: 16.3%
CAKI-1
  inhibition at 10 µM: < 10%
A549-ATCC
  inhibition at 10 µM: 24.7%
TK-10
  inhibition at 10 µM: 21.1%
NCI-H460
  inhibition at 10 µM: 17.4%
UO-31
  inhibition at 10 µM: 30.7%
UACC-257
  inhibition at 10 µM: 19.1%
MALME-3M
  inhibition at 10 µM: < 10%
T-47D
  inhibition at 10 µM: 12%
